Patent publication US20210053957A1, “HERBICIDAL COMPOUNDS” (SYNGENTA PARTICIPATIONS AG, priority 2018, published 2021)

Legend:
Experiment in all cases: Post-emergence efficacy, glasshouse spray test
Assay type in all cases: in vivo
[1] = system: Amaranthus palmeri (AMAPA); details: evaluated after 13 days; for pest or weed control at 500 g/ha / Control of weed species after post-emergence application, AMAPA (100=total damage to plant; 0=no damage to plant): Application Rate 500 g/Ha
Procedure, shortened: (§1)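 Treatment at 14 days after sowing with an aqueous spray made by diluting a 50 g/l stock (acetone + IF50: Emulsogen EL360, N-methyl pyrrolidone, Dowanol DPM) in surfactant plus ammonium sulphate. Damage scored 0–100 after 13 days.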

[2] = system: Chenopodium album (CHEAL); details: evaluated after 13 days; for pest or weed control at 500 g/ha / Control of weed species after post-emergence application, CHEAL (100=total damage to plant; 0=no damage to plant): Application Rate 500 g/Ha
Procedure, shortened: as §1

[3] = system: Digitaria sanguinalis (DIGSA); details: evaluated after 13 days; for pest or weed control at 500 g/ha / Control of weed species after post-emergence application, DIGSA (100=total damage to plant; 0=no damage to plant): Application Rate 500 g/Ha
Procedure, shortened: as §1

[4] = system: Echinochloa crus-galli (ECHCG); details: evaluated after 13 days; for pest or weed control at 500 g/ha / Control of weed species after post-emergence application, ECHCG (100=total damage to plant; 0=no damage to plant): Application Rate 500 g/Ha
Procedure, shortened: as §1

Eleusine indica (ELEIN) = details: evaluated after 13 days; for pest or weed control at 500 g/ha / Control of weed species after post-emergence application, ELEIN (100=total damage to plant; 0=no damage to plant): Application Rate 500 g/Ha
Procedure, shortened: as §1

[5] = system: Euphorbia heterophylla (EPHHL); details: evaluated after 13 days; for pest or weed control at 500 g/ha / Control of weed species after post-emergence application, EPHHL (100=total damage to plant; 0=no damage to plant): Application Rate 500 g/Ha
Procedure, shortened: as §1

[6] = system: Ipomoea hederacea (IPOHE); details: evaluated after 13 days; for pest or weed control at 500 g/ha / Control of weed species after post-emergence application, IPOHE (100=total damage to plant; 0=no damage to plant): Application Rate 500 g/Ha
Procedure, shortened: as §1

Lolium perenne (LOLPE) = details: evaluated after 13 days; for pest or weed control at 500 g/ha / Control of weed species after post-emergence application, LOLPE (100=total damage to plant; 0=no damage to plant): Application Rate 500 g/Ha
Procedure, shortened: as §1

Setaia fabei (SETFA) = details: evaluated after 13 days; for pest or weed control at 500 g/ha / Control of weed species after post-emergence application, SETFA (100=total damage to plant; 0=no damage to plant): Application Rate 500 g/Ha
Procedure, shortened: as §1

[7] = Amaranthus palmeri, post-emergence, 312 h, read-out: Control of weed species after post-emergence application, AMAPA (100=total damage to plant; 0=no damage to plant)
[8] = Chenopodium album, post-emergence, 312 h, read-out: Control of weed species after post-emergence application, CHEAL (100=total damage to plant; 0=no damage to plant)
[9] = Digitaria sanguinalis, post-emergence, 312 h, read-out: Control of weed species after post-emergence application, DIGSA (100=total damage to plant; 0=no damage to plant)
[10] = Echinochloa crus-galli, post-emergence, 312 h, read-out: Control of weed species after post-emergence application, ECHCG (100=total damage to plant; 0=no damage to plant)
[11] = Eleusine indica, post-emergence, 312 h, read-out: Control of weed species after post-emergence application, ELEIN (100=total damage to plant; 0=no damage to plant)
[12] = Euphorbia heterophylla, post-emergence, 312 h, read-out: Control of weed species after post-emergence application, EPHHL (100=total damage to plant; 0=no damage to plant)
[13] = Ipomoea hederacea, post-emergence, 312 h, read-out: Control of weed species after post-emergence application, IPOHE (100=total damage to plant; 0=no damage to plant)
[14] = Lolium perenne, post-emergence, 312 h, read-out: Control of weed species after post-emergence application, LOLPE (100=total damage to plant; 0=no damage to plant)
[15] = Setaria faberi, post-emergence, 312 h, read-out: Control of weed species after post-emergence application, SETFA (100=total damage to plant; 0=no damage to plant)

| Structure (SMILES) | pest or weed control at 500 g/ha [1, 7] [%] | pest or weed control at 500 g/ha [2, 8] [%] | pest or weed control at 500 g/ha [3, 9] [%] | pest or weed control at 500 g/ha [4, 10] [%] | pest or weed control at 500 g/ha (Eleusine indica (ELEIN); [11]) [%] | pest or weed control at 500 g/ha [5, 12] [%] | pest or weed control at 500 g/ha [6, 13] [%] | pest or weed control at 500 g/ha (Lolium perenne (LOLPE); [14]) [%] | pest or weed control at 500 g/ha (Setaia fabei (SETFA); [15]) [%] | other results |
| --- | --- | --- | --- | --- | --- | --- | --- | --- | --- | --- |
| CC(CNS(=O)(=O)[O-])[n+]1ccc(-c2ncco2)cn1 (stereo not drawn) [Compound A83] | 100 | 70 | 60 | 60 | 70 | 70 | 40 | 50 | 60 |  |
| CNc1nnc(-c2cc[n+](CCS(=O)(=O)[O-])nc2)s1 [Compound A45] | 100 | 80 | 50 | 40 | 70 | 90 | 20 | 70 | 70 |  |
| CS(=O)(=O)C[N-]C(=O)CCC[n+]1ccc(-c2ncco2)cn1 [Compound A74] | 100 | 90 | 90 | 40 | 100 | 70 | 80 | 60 | 80 |  |
| Cn1ncnc1-c1cc[n+](CCC(=O)O)nc1 [Compound A27] | 100 | 90 | 90 | 90 | 50 | 90 | 70 | 30 | 90 |  |
| COP(=O)(O)CCC[n+]1ccc(-c2ncco2)cn1 [Compound A86] | 40 | 30 | 30 | 10 | 20 | 30 | 40 | 20 | 20 |  |
| COP(=O)(C[n+]1ccc(-c2ncco2)cn1)OC [Compound A94] |  |  |  |  |  |  |  |  |  | Control of weed species after post-emergence application, AMAPA (100=total damage to plant; 0=no damage to plant) [1]: 90; Control of weed species after post-emergence application, CHEAL (100=total damage to plant; 0=no damage to plant) [2]: 90; Control of weed species after post-emergence application, DIGSA (100=total damage to plant; 0=no damage to plant) [3]: 100; Control of weed species after post-emergence application, ECHCG (100=total damage to plant; 0=no damage to plant) [4]: 90; Control of weed species after post-emergence application, ELEIN (100=total damage to plant; 0=no damage to plant) (Eleusine indica (ELEIN)): 100; Control of weed species after post-emergence application, EPHHL (100=total damage to plant; 0=no damage to plant) [5]: 100; Control of weed species after post-emergence application, IPOHE (100=total damage to plant; 0=no damage to plant) [6]: 90; Control of weed species after post-emergence application, LOLPE (100=total damage to plant; 0=no damage to plant) (Lolium perenne (LOLPE)): 40; Control of weed species after post-emergence application, SETFA (100=total damage to plant; 0=no damage to plant) (Setaia fabei (SETFA)): 90 |
| O=S(=O)([O-])CC[n+]1ccc(-c2ccoc2)cn1 [Compound A42] | 20 | 40 | 20 | 10 | 20 | 30 | 20 | 0 | 10 |  |
| O=S(=O)([O-])CCC[n+]1ccc(-c2ncco2)cn1 [Compound A3, 3-(4-oxazol-2-ylpyridazin-1-ium-1-yl)propane-1-sulfonate] |  |  |  |  |  |  |  |  |  | pest or weed control at 125 g/ha ([1]; Amaranthus palmeri, post-emergence, 312 h, Application Rate 125 g/Ha, read-out: Control of weed species after post-emergence application, AMAPA (100=total damage to plant; 0=no damage to plant)): 20%; pest or weed control at 125 g/ha ([2]; Chenopodium album, post-emergence, 312 h, Application Rate 125 g/Ha, read-out: Control of weed species after post-emergence application, CHEAL (100=total damage to plant; 0=no damage to plant)): 60%; pest or weed control at 125 g/ha ([3]; Digitaria sanguinalis, post-emergence, 312 h, Application Rate 125 g/Ha, read-out: Control of weed species after post-emergence application, DIGSA (100=total damage to plant; 0=no damage to plant)): 80%; pest or weed control at 125 g/ha ([4]; Echinochloa crus-galli, post-emergence, 312 h, Application Rate 125 g/Ha, read-out: Control of weed species after post-emergence application, ECHCG (100=total damage to plant; 0=no damage to plant)): 70%; pest or weed control at 125 g/ha (Eleusine indica (ELEIN); Eleusine indica, post-emergence, 312 h, Application Rate 125 g/Ha, read-out: Control of weed species after post-emergence application, ELEIN (100=total damage to plant; 0=no damage to plant)): 50%; pest or weed control at 125 g/ha ([5]; Euphorbia heterophylla, post-emergence, 312 h, Application Rate 125 g/Ha, read-out: Control of weed species after post-emergence application, EPHHL (100=total damage to plant; 0=no damage to plant)): 70%; pest or weed control at 125 g/ha ([6]; Ipomoea hederacea, post-emergence, 312 h, Application Rate 125 g/Ha, read-out: Control of weed species after post-emergence application, IPOHE (100=total damage to plant; 0=no damage to plant)): 40%; pest or weed control at 125 g/ha (Lolium perenne (LOLPE); Lolium perenne, post-emergence, 312 h, Application Rate 125 g/Ha, read-out: Control of weed species after post-emergence application, LOLPE (100=total damage to plant; 0=no damage to plant)): 20%; pest or weed control at 125 g/ha (Setaia fabei (SETFA); Setaria faberi, post-emergence, 312 h, Application Rate 125 g/Ha, read-out: Control of weed species after post-emergence application, SETFA (100=total damage to plant; 0=no damage to plant)): 80% |
| Cc1cc(-c2cc[n+](CCS(=O)(=O)[O-])nc2)sn1 [Compound A35] | 100 | 100 | 50 | 50 | 70 | 90 | 50 | 70 | 60 |  |
| O=S(=O)(O)CCCC[n+]1ccc(-c2ncco2)cn1 [Compound A68] |  |  |  |  |  |  |  |  |  | Control of weed species after post-emergence application, AMAPA (100=total damage to plant; 0=no damage to plant) [1]: 100; Control of weed species after post-emergence application, CHEAL (100=total damage to plant; 0=no damage to plant) [2]: 90; Control of weed species after post-emergence application, DIGSA (100=total damage to plant; 0=no damage to plant) [3]: 70; Control of weed species after post-emergence application, ECHCG (100=total damage to plant; 0=no damage to plant) [4]: 60; Control of weed species after post-emergence application, ELEIN (100=total damage to plant; 0=no damage to plant) (Eleusine indica (ELEIN)): 70; Control of weed species after post-emergence application, EPHHL (100=total damage to plant; 0=no damage to plant) [5]: 90; Control of weed species after post-emergence application, IPOHE (100=total damage to plant; 0=no damage to plant) [6]: 50; Control of weed species after post-emergence application, LOLPE (100=total damage to plant; 0=no damage to plant) (Lolium perenne (LOLPE)): 70; Control of weed species after post-emergence application, SETFA (100=total damage to plant; 0=no damage to plant) (Setaia fabei (SETFA)): 80 |
| COC(=O)CC[n+]1ccc(-c2nccs2)cn1 [Compound A112] | 50 | 60 | 90 | 50 | 90 | 50 | 20 | 30 | 60 |  |
| COC(=O)c1cccc(C[n+]2ccc(-c3ncco3)cn2)c1 [Compound A92] | 10 | 10 | 20 | 0 | 10 | 20 | 10 | 0 | 0 |  |
| CS(=O)(=O)[N-]C(=O)C[n+]1ccc(-c2ncco2)cn1 [Compound A72] | 90 | 70 | 60 | 40 | 80 | 70 | 70 | 40 | 60 |  |
| Cc1coc(-c2cc[n+](CC(=O)O)nc2)n1 [Compound A132] | 90 | 70 | 90 | 90 | 90 | 70 | 10 | 50 | 80 |  |
